Paper PMC10053865 (2023)

What was measured:
[1] = tested on: Cocaine aptamer (Au-supported sensor) (DNA, aptamer) GACAAGGAAAATCCTTCAACGAAGTGGGTC; assay: square-wave voltammetry (80 Hz), Hill fit; settings: 137 mM NaCl, 2.7 mM KCl; 1x PBS pH 7.4, 23 °C; apparent; procaine hydrochloride
[2] = tested on: Cocaine aptamer (ITO-supported sensor) (DNA, aptamer) GACAAGGAAAATCCTTCAACGAAGTGGGTC; assay: square-wave voltammetry (60 Hz), Hill fit; settings: 137 mM NaCl, 2.7 mM KCl; 1x PBS pH 7.4, 23 °C; apparent; procaine hydrochloride

**Q.** Which results are given for `CCN(CC)CCOC(=O)c1ccc(N)cc1`?
**A.** KD-Au [1]: 63.7 ± 9.3 mM; KD-ITO [2]: 6.2 ± 0.6 mM
